Measured values as given in US20190053492A1, “SUBSTITUTED PYRIDINE COMPOUNDS AS PESTICIDES” (Bayer CropScience Aktiengesellschaft, priority 2016, published 2019).

Columns and labels:
[1] = log P by HPLC on reversed-phase column (C 18), EEC Directive 79/831 Annex V.A8; format: physicochemical; conditions: 55° C.; for LOGP_HCOOH: log P (HCOOH); for LOGP_NEUTRAL: log P, neutral range
Description: Temperature: 55° C. […] Called log P (HCOOH) in the table. […] Called log P (neutral) in the table.

[2] = system: Spodoptera frugiperda; assay: Spodoptera frugiperda spray test; format: in vivo; conditions: after 7 days, maize leaf discs
Outline: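 Efficacy in % was scored at 7 days against armyworm caterpillars placed on dried, compound-sprayed Zea mays leaf discs. Compound was dissolved in acetone/dimethylformamide and diluted in water with 1000 ppm alkylaryl polyglycol ether. 100% means all caterpillars were killed.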

[3] = system: Phaedon cochleariae; assay: Phaedon cochleariae spray test; format: in vivo; conditions: after 7 days, Chinese cabbage leaf discs
Outline: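 Larval kill read at day 7 as percent, where 100% means every larva dead and 0% none; larvae were placed on dried Brassica pekinensis leaf discs previously sprayed with the formulation (acetone/dimethylformamide solvent, alkylaryl polyglycol ether emulsifier, water).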

[4] = system: Ctenocephalides felis; assay: Ctenocephalides felis oral test; format: in vivo; conditions: application rate 100 ppm in citrated cattle blood, after 2 days, adult cat fleas
Description: Ctenocephalides felis—Oral Test Solvent: dimethyl sulphoxide To produce a suitable active ingredient formulation, 10 mg of active ingredient are mixed with 0.5 ml of dimethyl sulphoxide. Dilution with citrated cattle blood gives the desired concentration. About 20 unfed adult cat fleas (Ctenocephalides felis) are placed into a chamber which is closed at the top and bottom with gauze. A metal cylinder whose bottom end is closed with parafilm is placed onto the chamber. The cylinder contains the blood/active ingredient formulation, which can be imbibed by the fleas through the parafilm membrane. After 2 days, the kill in % is determined. 100% means that all of the fleas have been killed; 0% means that none of the fleas have been killed.

[5] = acidic range pH 2.7, 0.1% aqueous formic acid and acetonitrile, reversed-phase column (C 18)
[6] = HPLC on reversed-phase column (C 18)

| SMILES | LOGP_HCOOH [1, 5] | efficacy (caterpillars killed) ([2]; application rate 500 g/ha) [%] | efficacy (beetle larvae killed) ([3]; application rate 500 g/ha) [%] | efficacy (kill in %) [4] [%] | LOGP_NEUTRAL [1, 6] | efficacy (caterpillars killed) ([2]; application rate 100 g/ha) [%] | efficacy (beetle larvae killed) ([3]; application rate 100 g/ha) [%] | LOGP_HCOOH ([1]; acidic range at pH 2.7, 0.1% aqueous formic acid and acetonitrile, HPLC on reversed-phase column (C 18)) |
| --- | --- | --- | --- | --- | --- | --- | --- | --- |
| N#Cc1cccc(CNC(=O)c2cc(-c3ccc(C(F)(F)F)cc3)cc(NC(=O)C3CC3)n2)c1 [Example I-004] | 3.83 | 100 | 100 | 100 |  |  |  |  |
| CC(=O)Nc1cc(-c2ccc(C(F)(F)F)cc2)cc(C(=O)NCc2ccc(C#N)cc2)n1 [Example I-017] | 3.15 | 100 | 100 | 98 | 3.13 |  |  |  |
| N#CC1(NC(=O)c2cc(-c3ccc(C(F)(F)F)cc3)cc(NC(=O)C3CC3)n2)CC1 [Example I-041] | 3.28 | 100 | 100 | 95 | 3.18 | 100 | 100 |  |
| N#Cc1ccc(CNC(=O)c2cc(-c3ccc(OC(F)(F)F)cc3)cc(NC(=O)C3CC3)n2)cn1 [Example I-051] | 3.49 | 100 | 100 | 100 | 3.37 | 100 | 100 |  |
| O=C(NCc1ccc(C(F)(F)F)cc1F)c1cc(-c2ccc(OC(F)(F)F)cc2)cc(NC(=O)C2CC2)n1 [Example I-065] | 4.80 | 100 | 83 | 95 | 4.74 | 100 |  |  |
| CC(C)C(=O)Nc1cc(-c2ccc(OC(F)(F)F)cc2)cc(C(=O)NC2(C#N)CC2)n1 [Example I-075] | 3.58 | 100 | 100 | 100 | 3.47 |  |  |  |
| N#CC1(NC(=O)c2cc(-c3ccc(OC(F)(F)F)cc3)cc(NC(=O)C3CC3)n2)CC1 [Example I-076] | 3.39 | 100 | 100 | 100 | 3.29 | 100 | 100 |  |
| O=C(Cc1ccc(C(F)(F)F)cc1)Nc1cc(-c2ccc(C(F)(F)F)cc2)cc(C(=O)NC2CC2)n1 [Example I-088] | 4.37 | 83 |  | 90 | 5.54 | 100 |  |  |
| O=C(NCc1ccc2c(c1)OC(F)(F)O2)c1cc(-c2ccc(OC(F)(F)F)cc2)cc(NC(=O)C2CC2)n1 [Example I-095] | 4.79 | 100 | 83 | 95 | 4.61 |  |  |  |
| O=C(NCc1ccc([N+](=O)[O-])cc1F)c1cc(-c2ccc(OC(F)(F)F)cc2)cc(NC(=O)C2CC2)n1 [Example I-102] | 4.29 | 100 | 100 | 100 | 4.16 | 83 | 100 |  |
| N#CC1(NC(=O)c2cc(-c3ccc(OC(F)(F)F)cc3)cc(NC(=O)C3CC3)n2)CCC1 [Example I-109] | 3.78 | 100 | 100 | 100 | 3.68 |  |  |  |
| CC(C)C(=O)Nc1cc(-c2ccc(OC(F)(F)F)cc2)cc(C(=O)NCc2cc(F)c(C#N)cc2F)n1 [Example I-110] |  | 100 | 100 | 100 | 4.19 | 100 | 100 | 4.33 |
